ChEMBL document CHEMBL1126870, “The crystal structure, absolute configuration, and phosphodiesterase inhibitory activity of (+)-1-(4-bromobenzyl)-4-(3-(cyclopentyloxy)- 4-methoxyphenyl)-pyrrolidin-2-one” (J Med Chem, 1993)

Target: Phosphodiesterase 4 (Homo sapiens, UniProt P27815+Q08499+Q07343+Q08493)
Test: Inhibition of partially-purified PDE 4 from human monocytes

IC50 [nM]	Compound
170	COc1ccc([C@@H]2CC(=O)N(Cc3ccc(Br)cc3)C2)cc1OC1CCCC1
740	COc1ccc([C@H]2CC(=O)N(Cc3ccc(Br)cc3)C2)cc1OC1CCCC1
